From patent publication US11801238B2, “Anti-viral activity of VPS34 inhibitors” (priority 2020, dated 2023)

Assays:
[1] = Compound cytotoxicity (CC50) counter screen, Cell Titer-Glo; format: cell-based; conditions: African green monkey, Example 5, Vero E6 cells, read-out: CC50 (general cytotoxic effects)
Description: Compound cytotoxicity (CC50) is assessed in a BSL-2 counter screen as follows: Host cells in media are added in 25 μl aliquots (4000 cells/well) to each well of assay ready plates prepared with test compounds as above. Cells only (100% viability) and cells treated with hyamine at 100 μM final concentration (0% viability) serve as the high and low signal controls, respectively, for cytotoxic effect in the assay. DMSO is maintained at a constant concentration for all wells (0.3%) as dictated by the dilution factor of stock test compound concentrations. After incubating plates at 37° C./5% CO2 and 90% humidity for 72 hours, 30 μl Cell Titer-Glo (Promega) is added to each well. Luminescence is read using a BMG PHERAstar plate reader following incubation at room temperature for 10 minutes to measure cell viability.

SARS CoV-2 [2] = test: SARS CoV-2 CPE assay for antiviral activity in Vero E6 host cells; format: cell-based; conditions: read-out: IC50 for inhibition of SARS CoV-2 mediated cell killing
in vitro = conditions: human
SARS CoV-2 [3] = test: microbe, parasite or virus in culture; format: cell-based; conditions: Severe acute respiratory syndrome coronavirus 2, A549, 48 h; read-out: IC50 for inhibition of SARS CoV-2 mediated cell killing
[4] = Vero C1008, CPE assay, Vero E6 cells, USA_WA1/2020 SARS CoV-2, 72 hours, 10-point dose response (high concentration 15 μM)

Row | SMILES | CC50 at 72 h [1] [nM] | IC50 (SARS CoV-2 [2]; [4]) [nM] | CC50 (in vitro) [nM] | IC50 (SARS CoV-2 [3]) [nM] | IC50 (SARS CoV-2 [2]; Vero C1008, 72 h) [nM]
1 | COC(=O)Nc1cc(-c2cc(-c3ccccc3C(F)(F)F)[nH]c(=O)c2)ccn1 [Compound 1] | > 30000 | 120 | 17000 | 90 | 
2 | CC(=O)Nc1cc(-c2cc(-c3cccnc3C(F)(F)F)[nH]c(=O)c2)ccn1 [Compound 2] | > 30000 | 2340 | > 30000 | 470 | 
3 | COC(=O)Nc1cc(-c2cc(-c3cccnc3C(F)(F)F)[nH]c(=O)c2)ccn1 [Compound 3] | > 30000 | 340 | > 30000 | 190 | 
4 | COC(=O)Nc1cc(-c2cc(N3CCOCC3C(F)(F)F)[nH]c(=O)c2)ccn1 (stereo not shown) [Compound 4] | 8260 |  | 2400 | 67 | 209
